The values below come from US7479493B2, “Substituted benzyl amine compounds” (Janssen Pharmaceutica N.V., priority 2006, dated 2009).

Assay [1] concerns the target cloned human H3 receptor (Homo sapiens, UniProt Q9Y5N1). Kind of assay: H3 Receptor Binding. As to conditions: cloned human H3 receptor stably expressed in SK-N-MC cells.
Assay [2] addresses T1, human SERT (Homo sapiens, UniProt P31645).
T1 construct: expressed in transfected cells; host or cells: HEK293 membranes
Kind of assay: Human SERT (3H-citalopram binding, HEK293 membranes). Particulars: HEK293 membranes expressing the human SERT, rt 1 h. How it is done:
Homogenized HEK293 (Human Embryonic Kidney) membranes expressing the human SERT were incubated with ^3H-citalopram (SERT) at rt for 1 h in 50 mM Tris, 120 mM NaCl, 5 mM KCl (pH 7.4). Nonspecific binding was determined in the presence of 10 μM fluoxetine for the SERT. The membranes were washed and the radioactivity was counted as above.

Assay [3] concerns the target Rat SERT (Rattus norvegicus, UniProt P31652). The assay can be described thus: biochemical.
Procedure: The supernatant was removed and re-centrifuged at 15,000 rpm for 30 min. […] Membranes were incubated with 0.6 nM [^3H]-Citalopram plus/minus test compounds for 60 min at 25° C. and harvested by rapid filtration over GF/C glass fiber filters (pretreated with 0.3% polyethylenimine) followed by four washes with ice-cold buffer. Nonspecific binding was defined in the presence of 100 μM fluoxetine.
Assay [4] concerns the target human H3 receptor (Homo sapiens, UniProt Q9Y5N1). Kind of assay: Cyclic AMP Accumulation (reporter gene, SK-N-MC cells).
Procedure: Sublines of SK-N-MC cells were created that expressed a reporter construct and the human H3 receptor. The reporter gene (β-galactosidase) is under the control of multiple cyclic AMP responsive elements. In 96-well plates, histamine was added directly to the cell media followed 5 min later by an addition of forskolin (5 μM final concentration). When appropriate, antagonists were added 10 min prior to agonist addition. After a 6-h incubation at 37° C., the media was aspirated and the cells washed with 200 μL of phosphate-buffered saline followed by a second aspiration. […] Color was developed using 25 μL of 1 mg/mL substrate solution (chlorophenolred β-D galactopyranoside; Roche Molecular Biochemicals, Indianapolis, Ind.).

Sequence of cloned human H3 receptor (Q9Y5N1 whole entry): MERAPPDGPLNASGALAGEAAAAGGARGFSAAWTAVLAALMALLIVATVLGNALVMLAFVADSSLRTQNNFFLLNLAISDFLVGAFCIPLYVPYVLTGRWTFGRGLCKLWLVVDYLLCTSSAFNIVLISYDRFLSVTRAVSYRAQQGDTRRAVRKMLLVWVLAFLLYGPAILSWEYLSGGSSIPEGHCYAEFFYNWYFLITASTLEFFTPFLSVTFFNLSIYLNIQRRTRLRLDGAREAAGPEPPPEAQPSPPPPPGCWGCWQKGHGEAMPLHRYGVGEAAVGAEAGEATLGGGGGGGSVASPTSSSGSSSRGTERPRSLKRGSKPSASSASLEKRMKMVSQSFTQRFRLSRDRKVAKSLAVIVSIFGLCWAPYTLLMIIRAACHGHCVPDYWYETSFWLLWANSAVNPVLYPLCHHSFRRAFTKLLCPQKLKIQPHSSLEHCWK
Sequence of human H3 receptor (Q9Y5N1 whole entry): as above
Sequence of Rat SERT (P31652 whole entry): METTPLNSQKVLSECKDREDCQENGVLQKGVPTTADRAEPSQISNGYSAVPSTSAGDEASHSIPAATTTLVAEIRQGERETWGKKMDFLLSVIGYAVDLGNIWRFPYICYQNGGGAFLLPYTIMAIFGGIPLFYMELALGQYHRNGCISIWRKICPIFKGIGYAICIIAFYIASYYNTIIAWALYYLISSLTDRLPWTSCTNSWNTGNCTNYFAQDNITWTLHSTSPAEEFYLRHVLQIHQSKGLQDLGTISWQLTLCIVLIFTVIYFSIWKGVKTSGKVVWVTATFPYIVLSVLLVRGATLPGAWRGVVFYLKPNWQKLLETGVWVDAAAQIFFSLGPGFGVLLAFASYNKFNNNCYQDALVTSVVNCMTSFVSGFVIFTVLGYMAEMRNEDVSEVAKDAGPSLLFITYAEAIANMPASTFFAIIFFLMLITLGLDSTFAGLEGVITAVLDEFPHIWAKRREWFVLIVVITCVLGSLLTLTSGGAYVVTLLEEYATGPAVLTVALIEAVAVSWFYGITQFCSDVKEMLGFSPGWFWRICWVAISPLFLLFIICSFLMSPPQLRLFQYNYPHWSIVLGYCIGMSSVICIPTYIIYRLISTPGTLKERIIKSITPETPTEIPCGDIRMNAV
T1 sequence (P31645 whole entry): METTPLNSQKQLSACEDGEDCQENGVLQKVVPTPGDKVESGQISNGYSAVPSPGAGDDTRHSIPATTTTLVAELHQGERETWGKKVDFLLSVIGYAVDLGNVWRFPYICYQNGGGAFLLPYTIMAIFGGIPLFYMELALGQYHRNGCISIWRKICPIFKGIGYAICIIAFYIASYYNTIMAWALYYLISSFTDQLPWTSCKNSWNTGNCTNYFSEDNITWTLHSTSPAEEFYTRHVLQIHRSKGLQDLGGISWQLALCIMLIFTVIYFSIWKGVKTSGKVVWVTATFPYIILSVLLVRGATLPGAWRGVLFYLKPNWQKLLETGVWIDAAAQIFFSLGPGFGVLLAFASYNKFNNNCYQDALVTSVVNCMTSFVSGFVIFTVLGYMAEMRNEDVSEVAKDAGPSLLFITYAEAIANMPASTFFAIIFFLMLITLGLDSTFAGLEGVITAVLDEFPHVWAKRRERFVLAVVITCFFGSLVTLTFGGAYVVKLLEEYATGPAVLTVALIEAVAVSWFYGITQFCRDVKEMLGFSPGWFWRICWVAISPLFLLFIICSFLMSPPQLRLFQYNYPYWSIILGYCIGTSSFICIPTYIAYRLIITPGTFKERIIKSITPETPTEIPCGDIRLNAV

On to `CNCc1cc(N2CCN(C(C)C)CCC2=O)ccc1Oc1ccc(Cl)c(Cl)c1` [Example 73, 4-[4-(3,4-Dichloro-phenoxy)-3-methylaminomethyl-phenyl]-1-isopropyl-[1,4]diazepan-5-one], for which the inhibition constant Ki in assay [1] was determined as 7.7 nM; in assay [2], 16 nM; in assay [3], 12 nM. The compound also gave a Kb in assay [4] of 4.47 nM.
